This note sets out measurements from patent US9873702B2, “Heterocyclic compounds as biogenic amine transport modulators” (Southern Research Institute, priority 2014, dated 2018).

A value given as a limit tells only on which side of the number the result lay.

Data set [1] addresses dopamine transporter (DAT) (Rattus norvegicus, UniProt P23977). Briefly: Dopamine reuptake ([^3H]dopamine uptake) inhibition in rat brain synaptosomes. The note with it: for IC50: DA Uptake EC50 (nM ± SD), rat caudate synaptosomes, 5 nM [^3H]dopamine, 15 min, 25° C., three experiments pooled; for Emax: read-out: DA Uptake Emax (% I ± SD).
Protocol: Freshly removed caudate was homogenized in 10% ice-cold sucrose with 12 strokes of a hand-held Potter-Elvehj em homogenizer followed by centrifugation at 1000×g for 10 min. The supernatants were saved on ice and used immediately. Transporter activity was assessed using 5 nM [^3H]dopamine. […] The selectivity of the uptake assay for dopamine active transporter (DAT) was optimized by including 100 nM citalopram and 100 nM desipramine as blockers of serotonin transporter (SERT) and norepinephrine transporter (NET) in the sucrose solution and assay buffer. Uptake inhibition assays were conducted at 25° C. and were initiated by adding 100 μl of tissue to 900 μL assay buffer containing test drug and [^3H]dopamine. Test drugs were diluted in assay buffer containing 1 mg/mL bovine serum albumin. Nonspecific uptake was measured by incubating in the presence of 10 μM indatraline. The reactions were stopped after 15 minutes by rapid vacuum filtration with a cell harvester (BRANDEL) over GF/B filters (Whatman) presoaked in wash buffer maintained at 25° C. (10 mM Tris-HCl, pH 7.4/150 mM NaCl). Filters were rinsed with 6 mL wash buffer and retained tritium was quantified by a MicroBeta liquid scintillation counter (PerkinElmer) after overnight extraction in 0.6 mL of liquid scintillation cocktail (Cytoscint, ICN). The data from three experiments were pooled and fit to a dose-response curve equation (using Kaleidagraph), to yield an Emax and EC50 value.
The data from three experiments were pooled and fit to a dose-response curve equation (using KaleidaGraph; Synergy Software, Reading, Pa.) to yield an Emax and IC50 value.

Sequence of dopamine transporter (DAT) (P23977 whole entry): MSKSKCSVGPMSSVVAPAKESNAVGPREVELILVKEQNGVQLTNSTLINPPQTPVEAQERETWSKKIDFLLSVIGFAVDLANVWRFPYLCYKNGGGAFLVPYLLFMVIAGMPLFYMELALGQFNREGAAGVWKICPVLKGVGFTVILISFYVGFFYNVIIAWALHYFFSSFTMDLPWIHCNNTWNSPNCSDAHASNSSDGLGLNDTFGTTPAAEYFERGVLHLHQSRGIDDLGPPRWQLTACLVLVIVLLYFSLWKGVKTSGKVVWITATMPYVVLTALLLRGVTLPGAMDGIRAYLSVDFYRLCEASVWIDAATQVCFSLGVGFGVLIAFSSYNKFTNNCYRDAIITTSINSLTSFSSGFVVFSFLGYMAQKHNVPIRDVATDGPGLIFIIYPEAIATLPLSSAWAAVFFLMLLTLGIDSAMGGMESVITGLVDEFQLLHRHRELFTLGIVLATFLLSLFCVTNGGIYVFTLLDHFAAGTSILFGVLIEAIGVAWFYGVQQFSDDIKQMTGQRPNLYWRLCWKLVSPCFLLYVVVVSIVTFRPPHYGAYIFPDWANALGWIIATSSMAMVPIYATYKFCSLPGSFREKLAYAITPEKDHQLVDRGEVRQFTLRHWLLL

As for `Cn1cnc2ccc(-c3nc(NCC(c4ccccc4)c4ccccc4)c4ccccc4n3)cc21` [compound 64, N-(2,2-Diphenylethyl)-2-(1-Methyl-1H-Benzo [D]Imidazol-6-yl)Quinazolin-4-Amine], the melting point amounted to 248 °C. Besides, in data set [1], the 50% inhibitory concentration (IC50) worked out at 19 ± 3 nM and the maximal effect (Emax) amounted to 75 ± 2%.
In the same order, the values of `Cn1ncc2c(-c3nc(NCC(c4ccccc4)c4ccccc4)c4ccccc4n3)cccc21` [compound 65, N-(2,2-Diphenylethyl)-2-(1-Methyl-1H-Indazol-4-yl)Quinazolin-4-Amine] are 201 °C, 155 ± 92 nM and 50 ± 6%.
In the same order, the values of `Cn1ncc2cc(-c3nc(NCC(c4ccccc4)c4ccccc4)c4ccccc4n3)ccc21` [compound 67, N-(2,2-Diphenylethyl)-2-(1-Methyl-1H-Indazol-5-yl)Quinazolin-4-Amine] are 200 °C, 43 ± 9 nM and 66 ± 2%.
In the same order, the values of `Cn1cc2c(-c3nc(NCC(c4ccccc4)c4ccccc4)c4ccccc4n3)cccc2n1` [compound 68, N-(2,2-Diphenylethyl)-2-(2-Methyl-2H-Indazol-4-yl)Quinazolin-4-Amine] are 121 °C, 195 ± 70 nM and 55 ± 4%.
As to `c1ccc(C(CNc2nc(-c3ccc4ncsc4c3)nc3ccccc23)c2ccccc2)cc1` [compound 70, 2-(Benzo [D]Thiazol-6-yl)-N-(2,2-Diphenylethyl)Quinazolin-4-Amine], the melting point was 198 °C. Besides, in data set [1], the IC50 was found to be 45 ± 15 nM and the maximal response (Emax) was found to be 67 ± 4%.
Turning to `CC(C)(C)OC(=O)N1CCCc2ccc(-c3nc(NCC(c4ccccc4)c4ccccc4)c4ccccc4n3)cc21` [compound 71, Tert-Butyl 7-(4-((2,2-Diphenylethyl)Amino)Quinazolin-2-yl)-3,4-Dihydroquinoline-1(2H)-Carboxylate], the melting point worked out at 89 °C. For the same molecule, in data set [1], the half-inhibitory concentration (IC50) was found to be 890 nM and the Emax was under 100%.
In the same order, the values of `CC(C)(C)OC(=O)n1cc(-c2nc(NCC(c3ccccc3)c3ccccc3)c3ccccc3n2)c2cccnc21` [compound 73, Tert-Butyl 3-(4-((2,2-Diphenylethyl)Amino)Quinazolin-2-yl)-1H-Pyrrolo[2,3-B]Pyridine-1-Carboxylate] are 105 °C, 1310 nM and under 100%.
In the same order, the values of `c1ccc(C(CNc2nc(-c3cn[nH]c3)nc3ccccc23)c2ccccc2)cc1` [compound 75, N-(2,2-Diphenylethyl)-2-(1H-Pyrazol-4-yl)Quinazolin-4-Amine] are 233 °C, 62 nM and 100%.
In the same order, the values of `Cn1cc(-c2nc(NCC(c3ccccc3)c3ccccc3)c3ccccc3n2)cn1` [compound 76, N-(2,2-Diphenylethyl)-2-(1-Methyl-1H-Pyrazol-4-yl)Quinazolin-4-Amine] are 211 °C, 170 nM and under 100%.
For `Cn1ccc2cc(-c3nc(NCC(c4ccccc4)c4ccccc4)c4ccccc4n3)ccc21` [compound 77, N-(2,2-Diphenylethyl)-2-(1-Methyl-1H-Indol-5-yl)Quinazolin-4-Amine], the melting point is 222 °C. Also, in data set [1], the IC50 is 28 ± 5 nM and the maximum response (Emax) turned out to be 69 ± 2%.
In the same order, the values of `O=C1Cc2cc(-c3nc(NCC(c4ccccc4)c4ccccc4)c4ccccc4n3)ccc2N1` [compound 78, 5-(4-((2,2-Diphenylethyl)Amino)Quinazolin-2-yl)Indolin-2-One] are 244 °C, 30 ± 5 nM and 77 ± 2%.
In the same order, the values of `Oc1nc2cc(-c3nc(NCC(c4ccccc4)c4ccccc4)c4ccccc4n3)ccc2[nH]1` [compound 79, 5-(4-((2,2-Diphenylethyl)Amino)Quinazolin-2-yl)-1H-Benzo[D]Imidazol-2-ol] are 215 °C, 51 ± 14 nM and 94 ± 4%.
In the case of `c1ccc(C(CNc2nc(-c3ccc4[nH]cnc4c3)nc3ccccc23)c2ccccc2)cc1` [compound 85, 2-(1H-Benzo [D]Imidazol-5-yl)-N-(2,2-Diphenylethyl)Quinazolin-4-Amine], the melting point amounted to 142 °C. The same molecule gave an IC50 in data set [1] of over 5000 nM.
The molecule `c1ccc(C(Nc2nc(-c3ccc4nccn4c3)nc3ccccc23)c2ccccc2)cc1` [compound 86, N-Benzhydryl-2-(Imidazo[1,2-A]Pyridin-6-yl)Quinazolin-4-Amine] displayed a melting point of 258 °C. Besides, in data set [1], 55 ± 6 nM corresponded to half-maximal inhibition (IC50) and the maximal effect (Emax) amounted to 70 ± 1%.
`c1ccc(C(CCNc2nc(-c3ccc4nccn4c3)nc3ccccc23)c2ccccc2)cc1` [compound 87, N-(3,3-Diphenylpropyl)-2-(Imidazo[1,2-A]Pyridin-6-yl)Quinazolin-4-Amine] returned a melting point of 237 °C. In addition, in data set [1], half-maximal inhibition (IC50) required 78 ± 9 nM and the Emax is 75 ± 1%.
In the same order, the values of `Nc1ccc(-c2nc(NCC(c3ccccc3)c3ccccc3)c3ccccc3n2)cn1` [compound 88, 2-(6-Aminopyridin-3-yl)-N-(2,2-Diphenylethyl)Quinazolin-4-Amine] are 86 °C, 41 ± 13 nM and 86 ± 5%.
In the same order, the values of `c1ccc(C(CNc2nc(-n3cnc4cncnc43)nc3ccccc23)c2ccccc2)cc1` [compound 90, N-(2,2-Diphenylethyl)-2-(9H-Purin-9-yl)Quinazolin-4-Amine] are 264 °C, 94 ± 10 nM and 75 ± 2%.
Consider `Cc1nc2ccc(-c3nc(NCC(c4ccccc4)c4ccccc4)c4ccccc4n3)cn2c1C` [compound 91, 2-(2,3-Dimethylimidazo[1,2-A]Pyridin-6-yl)-N-(2,2-Diphenylethyl)Quinazolin-4-Amine], for which the melting point was 232 °C. Besides, in data set [1], the half-inhibitory concentration (IC50) is 25 ± 3 nM and the maximal response (Emax) was 72 ± 2%.
In the same order, the values of `CN(C)c1ccc(-c2nc(NC(c3ccccc3)c3ccccc3)c3ccccc3n2)cn1` [compound 92, N-Benzhydryl-2-(6-(Dimethylamino)Pyridin-3-yl)Quinazolin-4-Amine] are 207 °C, 34 ± 5 nM and 68 ± 2%.
In the same order, the values of `CN(C)c1ccc(-c2nc(NCCC(c3ccccc3)c3ccccc3)c3ccccc3n2)cn1` [compound 93, 2-(6-(Dimethylamino)Pyridin-3-yl)-N-(3,3-Diphenylpropyl)Quinazolin-4-Amine] are 195 °C, 29 ± 4 nM and 76 ± 2%.
In the same order, the values of `c1ccc(C(CNc2nc(-c3ccc4nccn4c3)nc3ccccc23)c2ccccn2)cc1` (centres unmarked) [compound 94, 2-(Imidazo[1,2-A]Pyridin-6-yl)-N-(2-Phenyl-2-(Pyridin-2-yl)Ethyl)Quinazolin-4-Amine] are 238 °C, 36 ± 4 nM and 69 ± 1%.
In turn, `Nc1ncc(-c2nc(NCC(O)(c3ccccc3)c3ccccc3)c3ccccc3n2)cn1` [compound 97, 2-((2-(2-Aminopyrimidin-5-yl)Quinazolin-4-yl)Amino)-1,1-Diphenylethanol] came in with a melting point of 222 °C. Also, in data set [1], the midpoint of inhibition, the IC50, lay at 665 ± 150 nM and the maximal effect (Emax) turned out to be 90 ± 5%.
In the same order, the values of `Nc1ncc(-c2nc(NCC(c3ccccc3)C3CCCCC3)c3ccccc3n2)cn1` (centres unmarked) [compound 101, 2-(2-Aminopyrimidin-5-yl)-N-(2-Cyclohexyl-2-Phenylethyl)Quinazolin-4-Amine] are 105 °C, 79 ± 19 nM and 75 ± 3%.
The molecule `Nc1ncc(-c2nc(NCC(c3ccccc3)c3ccncc3)c3ccccc3n2)cn1` (centres unmarked) [compound 107, 2-(2-Aminopyrimidin-5-yl)-N-(2-Phenyl-2-(Pyridin-4-yl)Ethyl)Quinazolin-4-Amine] returned a melting point of 219 °C. In data set [1], the half-inhibitory concentration (IC50) is 197 ± 40 nM and the Emax stood at 81 ± 3%.
In the same order, the values of `c1ccc(C(CNc2nc(-c3cnc4nccn4c3)nc3ccccc23)c2ncccn2)cc1` (centres unmarked) [compound 109, 2-(Imidazo[1,2-A]Pyrimidin-6-yl)-N-(2-Phenyl-2-(Pyrimidin-2-yl)Ethyl)Quinazolin-4-Amine] are 180 °C, 377 ± 78 nM and 57 ± 2%.
In the same order, the values of `CN(C)Cc1c[nH]c2ccc(-c3nc(NCC(c4ccccc4)c4ccccc4)c4ccccc4n3)cc12` [compound 111, 2-(3-((Dimethylamino)methyl)-1H-Indol-5-yl)-N-(2,2-Diphenylethyl)Quinazolin-4-Amine] are 182 °C, 381 ± 42 nM and 101 ± 2%.
Regarding `CCOC(=O)c1cn2cc(-c3nc(NCC(c4ccccc4)c4ccccc4)c4ccccc4n3)ccc2n1` [compound 113, Ethyl 6-(4-((2,2-Diphenylethyl)Amino)Quinazolin-2-yl)Imidazo[1,2-A]Pyridine-2-Carboxylate], the melting point was 204 °C. For the same molecule, in data set [1], the IC50 amounted to 74 ± 9 nM and the maximal effect (Emax) is 64 ± 1%.
`c1ccc(C(CNc2nc(-c3ccc4nncn4c3)nc3ccccc23)c2ccccc2)cc1` [compound 114, 2-([1,2,4]Triazolo[4,3-A]Pyridin-6-yl)-N-(2,2-Diphenylethyl)Quinazolin-4-amine] gave a melting point of 224 °C. In addition, in data set [1], the IC50 came to 67 ± 7 nM and the Emax was found to be 68 ± 1%.
In the same order, the values of `c1ccc(C(CNc2nc(-c3ccc4nccn4c3)nc3ccccc23)N2CCCCC2)cc1` (centres unmarked) [compound 119, 2-(Imidazo[1,2-A]Pyridin-6-yl)-N-(2-Phenyl-2-(Piperidin-1-yl)Ethyl)Quinazolin-4-Amine] are 193 to 195 °C, 117 ± 35 nM and 83 ± 5%.

The melting point is the temperature, or range, at which the solid turns liquid. A word on the IC50: it is the point on the concentration scale where inhibition reaches its midpoint. Low readings indicate higher potency, high ones lower potency. Usually Emax stands for the maximal effect, on the per cent scale that the assay sets.
